Measured values taken from patent US20190053492A1, “SUBSTITUTED PYRIDINE COMPOUNDS AS PESTICIDES” (Bayer CropScience Aktiengesellschaft, priority 2016, published 2019).
Like-named read-outs stand apart in the source and are kept apart here.

What was measured:
[1] = log P by HPLC on reversed-phase column (C 18), EEC Directive 79/831 Annex V.A8; type: physicochemical; details: 55° C.; for LOGP_HCOOH: log P (HCOOH); for chromatographic logP: reversed-phase HPLC column (C 18)
Method: Temperature: 55° C. […] Called log P (HCOOH) in the table. […] Called log P (neutral) in the table.

Spodoptera frugiperda = Spodoptera frugiperda spray test; type: in vivo; details: after 7 days, maize leaf discs
Method: Spodoptera frugiperda—Spray Test
(§1) Solvent: 78.0 parts by weight of acetone • • 1.5 parts by weight of dimethylformamide
(§2) Emulsifier: alkylaryl polyglycol ether
(§3) To produce a suitable active ingredient formulation, 1 part by weight of active ingredient is dissolved with the specified parts by weight of solvent and made up with water containing an emulsifier concentration of 1000 ppm until the desired concentration is attained. To produce further test concentrations, the formulation is diluted with emulsifier-containing water.
Leaf discs of maize (Zea mays) are sprayed with an active ingredient formulation of the desired concentration and, after drying, populated with caterpillars of the armyworm (Spodoptera frugiperda).
After 7 days, the efficacy in % is determined. 100% means that all the caterpillars have been killed; 0% means that no caterpillar has been killed.

Phaedon cochleariae = Phaedon cochleariae spray test; type: in vivo; details: after 7 days, Chinese cabbage leaf discs
Method: Phaedon cochleariae—Spray Test
as §1, §2, §3
Discs of Chinese cabbage leaves (Brassica pekinensis) are sprayed with an active ingredient formulation of the desired concentration and, after drying, populated with larvae of the mustard beetle (Phaedon cochleariae).
After 7 days, the efficacy in % is determined. 100% means that all the beetle larvae have been killed; 0% means that no beetle larvae have been killed.

[2] = acidic range at pH 2.7, 0.1% aqueous formic acid and acetonitrile, HPLC on reversed-phase column (C 18)
[3] = log P, neutral range, HPLC on reversed-phase column (C 18)
[4] = acidic range pH 2.7, 0.1% aqueous formic acid and acetonitrile, reversed-phase column (C 18)
[5] = pH 7.8, LC-MS neutral range, pH 7.8, ammonium hydrogencarbonate/acetonitrile, read-out: log P (neutral)
[6] = Phaedon cochleariae, foliar, 168 h, application rate 500 g/ha, read-out: efficacy (beetle larvae killed)
[7] = log P (neutral), HPLC reversed-phase column (C 18)

Row | SMILES | LOGP_NEUTRAL [1, 3] | efficacy (caterpillars killed) (Spodoptera frugiperda; application rate 500 g/ha) [%] | efficacy (beetle larvae killed) (Phaedon cochleariae; application rate 500 g/ha) [%] | LOGP_HCOOH [1, 4] | also measured
1 | CC(NC(=O)c1cc(-c2ccc(OC(F)(F)F)cc2)cc(NC(=O)C2CC2)n1)c1ccc(C#N)cc1 (racemic) [Example I-158] | 4.02 | 100 | 100 |  | LOGP_HCOOH [1, 2]: 4.17; efficacy (caterpillars killed) (Spodoptera frugiperda; application rate 100 g/ha): 100%; efficacy (beetle larvae killed) (Phaedon cochleariae; application rate 100 g/ha): 83%
2 | N#Cc1ccc(CNC(=O)c2cc(-c3ccc(F)cc3)cc(NC(=O)C3CC3)n2)cc1 [Example I-002] |  |  | 100 | 3.24 | 
3 | O=C(NCc1ccccn1)c1cc(-c2ccc(C(F)(F)F)cc2)cc(NC(=O)C2CC2)n1 [Example I-007] | 2.75 | 83 | 100 | 3.19 | 
4 | O=C(NCC(F)(F)F)c1cc(-c2ccc(C(F)(F)F)cc2)cc(NC(=O)C2CC2)n1 [Example I-009] | 3.77 | 100 | 100 | 3.82 | 
5 | O=C(NCc1ccc(Cl)nc1)c1cc(-c2ccc(C(F)(F)F)cc2)cc(NC(=O)C2CC2)n1 [Example I-011] | 3.55 | 100 | 100 | 3.67 | efficacy (beetle larvae killed) (Phaedon cochleariae; application rate 100 g/ha): 100%
6 | O=C(NCC1CC1)c1cc(-c2ccc(C(F)(F)F)cc2)cc(NC(=O)C2CC2)n1 [Example I-012] | 3.66 | 100 | 100 | 3.78 | efficacy (beetle larvae killed) (Phaedon cochleariae; application rate 100 g/ha): 100%
7 | CCNC(=O)c1cc(-c2ccc(C(F)(F)F)cc2)cc(NC(=O)C2CC2)n1 [Example I-016] | 3.23 | 100 | 83 | 3.30 | 
8 | CC(C)NC(=O)c1cc(-c2ccc(C(F)(F)F)cc2)cc(NC(=O)C2CC2)n1 [Example I-018] | 3.68 | 100 | 100 | 2.65 | efficacy (caterpillars killed) (Spodoptera frugiperda; application rate 100 g/ha): 83%
9 | N#Cc1ccc(NC(=O)c2cc(-c3ccc(C(F)(F)F)cc3)cc(NC(=O)C3CC3)n2)cc1 [Example I-019] | 4.33 | 100 | 100 | 4.40 | 
10 | N#Cc1ccc(CNC(=O)c2cc(-c3ccc(Cl)cc3)cc(NC(=O)C3CC3)n2)cc1 [Example I-020, 4-(4-Chlorophenyl)-N-(4-cyanobenzyl)-6-[(cyclopropylcarbonyl)amino]pyridine-2-carboxamide] | 3.54 |  |  |  | chromatographic logP ([1]; pH 2.7, log P (HCOOH), acidic range pH 2.7, 0.1% aqueous formic acid and acetonitrile, reversed-phase column (C 18), read-out: LOGP_HCOOH): 3.6; chromatographic logP [1, 5]: 3.54; pest or weed control at 500 g/ha (Spodoptera frugiperda; Spodoptera frugiperda, foliar, 168 h, application rate 500 g/ha, read-out: efficacy (caterpillars killed)): 100%; pest or weed control at 500 g/ha (Phaedon cochleariae; [6]): 100%
11 | N#Cc1ccc(NC(=O)c2cc(-c3ccc(Cl)cc3)cc(NC(=O)C3CC3)n2)cc1 [Example I-022] | 4.29 | 100 | 100 | 4.34 | efficacy (caterpillars killed) (Spodoptera frugiperda; application rate 100 g/ha): 100%; efficacy (beetle larvae killed) (Phaedon cochleariae; application rate 100 g/ha): 83%
12 | O=C(NCc1ccc(Cl)nc1)c1cc(-c2ccc(Cl)cc2)cc(NC(=O)C2CC2)n1 [Example I-024] | 3.47 |  | 100 | 3.53 | 
13 | CC(NC(=O)c1cc(-c2ccc(C(F)(F)F)cc2)cc(NC(=O)C2CC2)n1)C1CC1 (stereo not drawn) [Example I-031] | 4.06 | 100 | 100 | 4.17 | 
14 | N#Cc1ccc(CNC(=O)c2cc(-c3ccc(I)cc3)cc(NC(=O)C3CC3)n2)cc1 [Example I-050] | 3.83 |  | 83 | 3.87 | 
15 | CC(C)C(=O)Nc1cc(-c2ccc(C(F)(F)F)cc2)cc(C(=O)NCc2c(F)cc(C#N)cc2F)n1 [Example I-069] | 4.05 |  | 83 | 4.16 | 
16 | O=C(NCc1ccc([N+](=O)[O-])cc1)c1cc(-c2ccc(C(F)(F)F)cc2)cc(NC(=O)C2CC2)n1 [Example I-084] | 3.85 |  | 100 | 3.98 | 

Row | SMILES | LOGP_NEUTRAL [1, 3] | efficacy (caterpillars killed) (Spodoptera frugiperda; application rate 500 g/ha) [%] | efficacy (beetle larvae killed) (Phaedon cochleariae; application rate 500 g/ha) [%] | LOGP_HCOOH [1, 4] | also measured
17 | N#Cc1ccc(CNC(=O)c2cc(-c3ccc(S(=O)(=O)C(F)(F)F)cc3)cc(NC(=O)C3CC3)n2)cn1 [Example I-097] | 3.11 |  | 100 | 3.24 | 
18 | N#Cc1ccc(CNC(=O)c2cc(-c3ccc(SC(F)F)cc3)cc(NC(=O)C3CC3)n2)cc1 [Example I-180] | 3.46 |  | 100 |  | LOGP_HCOOH [1, 2]: 3.55; efficacy (beetle larvae killed) (Phaedon cochleariae; application rate 100 g/ha): 100%
19 | NS(=O)(=O)c1ccc(CNC(=O)c2cc(-c3ccc(OC(F)(F)F)cc3)cc(NC(=O)C3CC3)n2)cc1 [Example I-186] | 3.00 |  | 100 |  | LOGP_HCOOH [1, 2]: 3.17
20 | N#Cc1ccc(CNC(=O)c2cc(-n3ccc(C(F)(F)C(F)(F)F)n3)cc(NC(=O)C3CC3)n2)cc1 [Example I-188, N-(4-Cyanobenzyl)-6-[(cyclopropylcarbonyl)amino]-4-[3-(pentafluoroethyl)-1H-pyrazol-1-yl]pyridine-2-carboxamide] | 3.57 |  |  |  | LOGP_HCOOH [1, 2]: 3.70; chromatographic logP ([1]; pH 2.7, LC-MS acidic range, pH 2.7, 0.1% formic acid/acetonitrile, read-out: log P (acidic) / log P (HCOOH)): 3.7; chromatographic logP [1, 5]: 3.57; pest or weed control at 100 g/ha (Phaedon cochleariae; Phaedon cochleariae, foliar, 168 h, application rate 100 g/ha, read-out: efficacy (beetle larvae killed)): 100%; pest or weed control at 500 g/ha (Phaedon cochleariae; [6]): 100%
21 | O=C(NCc1ccc([N+](=O)[O-])cc1)c1cc(-c2ccc(C(F)(F)C(F)(F)F)c(F)c2)cc(NC(=O)C2CC2)n1 [Example I-209] | 4.33 |  |  |  | LOGP_HCOOH [1, 2]: 4.34; efficacy (beetle larvae killed) (Phaedon cochleariae; application rate 100 g/ha): 100%
22 | N#Cc1ccc(CNC(=O)c2cc(-c3ccc(OC(F)(F)F)cc3)cc(NC(=O)C3(C#N)CC3)n2)cc1 [Example I-210] | 3.88 |  | 83 |  | LOGP_HCOOH [1, 2]: 4.04; efficacy (beetle larvae killed) (Phaedon cochleariae; application rate 100 g/ha): 83%
23 | N#Cc1ccc(CNC(=O)c2cc(-c3ccc(C(F)F)c(F)c3)cc(NC(=O)C3CC3)n2)cc1 [Example I-222] | 3.34 |  | 100 |  | LOGP_HCOOH [1, 2]: 3.39; efficacy (beetle larvae killed) (Phaedon cochleariae; application rate 100 g/ha): 100%
24 | N#Cc1ccc(CNC(=O)c2cc(-c3ccc(OC(F)(F)F)c(Cl)c3)cc(NC(=O)C3CC3)n2)cc1 [Example I-230] | 4.24 |  |  |  | LOGP_HCOOH [1, 2]: 4.32; efficacy (beetle larvae killed) (Phaedon cochleariae; application rate 100 g/ha): 83%
25 | CONC(=O)c1cc(-c2ccc(OC(F)(F)F)cc2)cc(NC(=O)C2CC2)n1 [Example I-234] |  |  | 100 | 2.97 | LOGP_NEUTRAL [1, 7]: 2.89
26 | O=C(NOCC1CC1)c1cc(-c2ccc(OC(F)(F)F)cc2)cc(NC(=O)C2CC2)n1 [Example I-236] |  |  | 100 | 3.59 | LOGP_NEUTRAL [1, 7]: 3.50
27 | N#CCCCONC(=O)c1cc(-c2ccc(OC(F)(F)F)cc2)cc(NC(=O)C2CC2)n1 [Example I-238] |  |  | 83 | 3.13 | 
28 | N#Cc1ccc(CNC(=O)c2cc(-c3ccc(OC(F)(F)F)cc3)cc(NC(=O)c3ccc(Cl)nc3)n2)cc1 [Example I-256] |  | 100 |  | 4.25 | LOGP_NEUTRAL [1, 7]: 4.20
29 | N#Cc1ccc(CNC(=O)c2cc(-c3ccc(OC(F)(F)F)cc3)cc(NC(=O)Cc3ccc(C(F)(F)F)cc3)n2)cc1 [Example I-260] |  | 100 |  | 4.68 | LOGP_NEUTRAL [1, 7]: 4.66; efficacy (caterpillars killed) (Spodoptera frugiperda; application rate 100 g/ha): 100%
30 | N#Cc1ccc(CNC(=O)c2cc(-c3cc(F)c(C(F)(F)C(F)(F)F)cc3Cl)cc(NC(=O)C3CC3)n2)cc1 [Example I-269] |  | 83 |  | 4.34 | 
31 | N#Cc1ccc(CNC(=O)c2cc(-c3ccc(C(F)(F)C(F)(F)F)c(F)c3F)cc(NC(=O)C3CC3)n2)cc1 [Example I-272] |  |  | 83 | 4.17 | 
32 | N#Cc1ccc(CNC(=O)c2cc(-c3ccc(C(F)(F)C(F)(F)F)c(Cl)c3)cc(NC(=O)C3CC3)n2)cc1 [Example I-273] |  | 100 |  | 4.45 | 
